Legend:
[1] = target: T1, Recombinant STAT3 protein (STAT3(G127-I722)) (Homo sapiens, UniProt P40763); test: STAT3 Fluorescence Polarization (FP) Assay; type: binding; conditions: 25 nM STAT3(G127-I722), 2 nM 5-FAM-GpYLPQTV-NH2 probe, pH 7.4, 45-minute incubation at room temperature
T1 construct: Recombinant STAT3 protein (STAT3(G127-I722))
Method: An FP assay was developed to determine IC50 values for test substances. Recombinant STAT3 protein (STAT3(G127-I722)) at 25 nM was combined with a fluorescently labeled, phosphotyrosine peptide probe (5-FAM-GpYLPQTV-NH2) at 2 nM in FP buffer (10 mM HEPES pH 7.4, 50 mM NaCl. 1 mM EDTA, 0.05% Tween 20, 2 mM DTT). 50 μL of STAT3-probe mixture was added to serial diluted compounds in black, 96-well plates (Greiner BioOne 655076) to a final concentration of 1% DMSO. Reaction components were mixed, and FP was measured after 45-minute incubation at room temperature using a Tecan Spark multimode plate reader. FP signal (mP) was plotted against the log concentration of the test substances and IC50 values were calculated by nonlinear regression analysis using GraphPad Prism software. For STAT3 FP assay, A=≤100 nM; B=>100-1000 nM; C=>1-10 μM; and D=>10 μM.

[2] = target: T2, Recombinant STAT6 protein (STAT6(W123-T658)) (Homo sapiens, UniProt P42226); test: STAT6 Fluorescence Polarization (FP) Assay; type: binding; conditions: 250 nM STAT6(W123-T658), 2 nM 5-FAM-Ap[…]-NH2 probe, pH 7.4, 45-minute incubation at room temperature
T2 construct: Recombinant STAT6 protein (STAT6(W123-T658))
T2 sequence (P42226 123-658): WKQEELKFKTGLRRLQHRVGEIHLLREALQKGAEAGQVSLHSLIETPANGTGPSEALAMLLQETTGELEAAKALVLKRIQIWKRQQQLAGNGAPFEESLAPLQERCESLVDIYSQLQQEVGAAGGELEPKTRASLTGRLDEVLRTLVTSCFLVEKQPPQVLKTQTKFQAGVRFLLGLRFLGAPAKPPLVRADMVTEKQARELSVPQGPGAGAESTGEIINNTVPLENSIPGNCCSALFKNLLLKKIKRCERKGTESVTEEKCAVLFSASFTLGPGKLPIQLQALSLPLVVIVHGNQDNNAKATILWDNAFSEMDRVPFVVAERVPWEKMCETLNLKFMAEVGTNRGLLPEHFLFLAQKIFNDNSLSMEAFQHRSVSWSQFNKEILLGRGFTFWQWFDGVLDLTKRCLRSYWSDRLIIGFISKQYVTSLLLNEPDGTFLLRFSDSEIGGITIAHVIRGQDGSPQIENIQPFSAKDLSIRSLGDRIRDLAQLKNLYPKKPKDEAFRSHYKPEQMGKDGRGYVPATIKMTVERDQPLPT
Method: An FP assay was developed to determine IC50 values for test substances. Recombinant STAT6 protein (STAT6(W123-T658)) at 250 nM was combined with a fluorescently labeled, phosphotyrosine peptide probe (5-FAM-Ap[…]-NH2) at 2 nM in FP buffer (10 mM HEPES pH 7.4, 50 mM NaCl, 1 mM EDTA, 0.05% Tween 20, 2 mM DTT). 50 μL of STAT6-probe mixture was added to serial diluted compounds in black, 96-well plates (Greiner BioOne 655076) to a final concentration of 1% DMSO. Reaction components were mixed, and FP w as measured after 45-minute incubation at room temperature using a Tecan Spark multimode plate reader. FP signal (mP) was plotted against the log concentration of the test substances and IC50 values were calculated by nonlinear regression analysis using GraphPad Prism software. For STAT6 FP assay. A=≤300 nM; B=>300-3000 nM; C=>3-30 μM; and D=>30 μM.

[3] = system: pSTAT3 (pY705-STAT3) in PBMC; test: MSD-pSTAT-PBMC Assay (pSTAT3); type: cell-based; conditions: compound 3 hrs, then 10 ng/mL IL-6 for 10 min
Excerpt: (§1) Cryopreserved Peripheral Blood Mononuclear Cells (PBMC) are from AllCells. Recombinant Human […] and IL-6 are from Peprotech. Mouse monoclonal anti-STAT3 antibody, rabbit monoclonal anti-pY705-STAT3 antibody, rabbit monoclonal Anti-pY641-STAT6 antibody, and lysis buffer are from Cell Signaling Technology (CST). Mouse monoclonal anti-STAT6 antibody is from BioLegend. Assay plates, blocker, and anti-rabbit secondary antibody are from Meso Scale Discovery (MSD).
(§2) Cryopreserved PBMCs were thawed out and allowed to recover overnight in IMDM+10% heat-inactivated FBS prior to plating 50,000 (STAT3) or 25,000 (STAT6) cells per well in 96-well U-bottom tissue culture plates. Cells were treated with compound for 3 hrs, then stimulated with 10 ng/mL IL-6 (STAT3) or 1 ng/mL IL-4 (STAT6) for 10 min. Cells were then spun down and washed with ice-cold PBS prior to lysing the cell pellet with 1× lysis buffer (CST) with 1× HALT protease and phosphatase inhibitor cocktail (Thermo). Lysates were transferred to and incubated overnight at 4° C. with shaking in QuickPlex 96-well high bind assay plates (MSD) pre-coated overnight with 30 μL per well of 0.6 μg/mL mouse monoclonal anti-STAT3 antibody (STAT3) or 2 μg/mL mouse monoclonal anti-STAT6 antibody (STAT6) in 1×PBS, and pre-blocked for 1 hour with 3% Blocker-A (MSD). Captured protein in the assay plates were then washed and probed with 25 μL per well of 0.25 μg/ml rabbit monoclonal anti-pY705-STAT3 antibody (STAT3) or 0.18 μg/ml rabbit monoclonal Anti-pY641-STAT6 antibody (STAT6) in 1% Blocker-A for 1 hour at room temperature with shaking, then washed and probed with 25 ul per well of 1 ug/ml Sulfo-TAG Labeled Goat Anti-Rabbit Antibody (MSD) in 1% Blocker-A for 1 hour at room temperature with shaking. Assay plates were then washed and 150 μL of 1× Read Buffer-T (MSD) was added to each well prior to reading on an SQ120 MSD Plate Reader. Assay signal from each sample was subtracted by the signal from unstimulated control wells and normalized to DMSO control wells, IC50 values were calculated using Graph Pad Prism Dose-Response Nonlinear Regression with variable slope. For both pSTAT3 and pSTAT6 A=≤100 nM; B=>100-1000 nM; C=>1000-3000 nM; and D=>3 μM.

[4] = system: pSTAT6 (pY641-STAT6) in PBMC; test: MSD-pSTAT-PBMC Assay (pSTAT6); type: cell-based; conditions: compound 3 hrs, then 1 ng/mL IL-4 for 10 min
Excerpt: as §1, §2

T1 sequence (P40763 127-722): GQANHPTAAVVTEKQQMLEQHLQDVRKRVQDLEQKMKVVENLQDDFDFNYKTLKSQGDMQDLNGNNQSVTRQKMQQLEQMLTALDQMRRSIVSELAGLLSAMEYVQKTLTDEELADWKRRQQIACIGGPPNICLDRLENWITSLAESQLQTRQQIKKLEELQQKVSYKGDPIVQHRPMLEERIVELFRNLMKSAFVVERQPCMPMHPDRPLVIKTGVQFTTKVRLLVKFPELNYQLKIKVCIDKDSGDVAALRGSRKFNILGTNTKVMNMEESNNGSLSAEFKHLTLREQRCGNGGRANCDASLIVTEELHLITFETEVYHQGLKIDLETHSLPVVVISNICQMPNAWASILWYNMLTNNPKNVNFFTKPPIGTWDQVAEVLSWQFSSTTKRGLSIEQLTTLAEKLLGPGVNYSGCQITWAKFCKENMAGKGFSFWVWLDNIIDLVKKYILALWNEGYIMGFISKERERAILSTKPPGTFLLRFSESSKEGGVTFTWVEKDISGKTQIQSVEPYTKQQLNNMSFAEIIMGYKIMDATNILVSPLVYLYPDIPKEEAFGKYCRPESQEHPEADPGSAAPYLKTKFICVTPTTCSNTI

Row | Structure (SMILES) | IC50 [1] | IC50 [2] | IC50 [3] | IC50 [4]
1 | O=C1CCC(c2ccc(OCC(=O)N3CCN(c4ccncc4C4CN(C(=O)[C@@H]5CC[C@@H]6C[C@H]7C[C@H]7C[C@H](NC(=O)c7cc8cc(C(F)(F)P(=O)(O)O)ccc8s7)C(=O)N65)C4)CC3)cc2)C(=O)N1 (stereo partly drawn) [Compound 21, ((2-(((3S,6S,7aS,8aR,9aR)-3-(3-(4-(4-(2-(4-(2,6-dioxopiperidin-3-yl)phenoxy)acetyl)piperazin-1-yl)pyridin-3-yl)azetidine-1-carbonyl)-5-oxodecahydro-1H-cyclopropa[d]pyrrolo[1,2-a]azocin-6-yl)carbamoyl)benzo[b]thiophen-5-yl)difluoromethyl)phosphonic acid] | < 0.1 µM | 3 to 30 µM | > 3 µM | 
2 | CN(CCOc1ccc(C2CCC(=O)NC2=O)cc1)c1ccncc1C1CN(C(=O)[C@@H]2CC[C@@H]3C[C@H]4C[C@H]4C[C@H](NC(=O)c4cc5cc(C(F)(F)P(=O)(O)O)ccc5s4)C(=O)N32)C1 (stereo partly drawn) [Compound 11, ((2-(((3S,6S,7aS,8aR,9aR)-3-(3-(4-((2-(4-(2,6-dioxopiperidin-3-yl)phenoxy)ethyl)(methyl)amino)pyridin-3-yl)azetidine-1-carbonyl)-5-oxodecahydro-1H-cyclopropa[d]pyrrolo[1,2-a]azocin-6-yl)carbamoyl)benzo[b]thiophen-5-yl)difluoromethyl)phosphonic acid] | < 0.1 µM | 3 to 30 µM | > 3 µM | 
3 | CCCC(=O)SCCOP(=O)(OCCSC(=O)CCC)C(F)(F)c1ccc2sc(C(=O)N[C@H]3C[C@@H]4C[C@@H]4C[C@H]4CCC(C(=O)N5CC(c6cnccc6N6CCN(C(=O)COc7ccc(C8CCC(=O)NC8=O)cc7)CC6)C5)N4C3=O)cc2c1 (stereo partly drawn) [Compound 22, S,S′-(((((2-(((3S,6S,7aS,8aR,9aR)-3-(3-(4-(4-(2-(4-(2,6-dioxopiperidin-3-yl)phenoxy)acetyl)piperazin-1-yl)pyridin-3-yl)azetidine-1-carbonyl)-5-oxodecahydro-1H-cyclopropa[d]pyrrolo[1,2-a]azocin-6-yl)carbamoyl)benzo[b]thiophen-5-yl)difluoromethyl)phosphoryl)bis(oxy))bis(ethane-2,1-diyl)) dibutanethioate] |  |  | < 0.1 µM | 
4 | O=C1CCC(N2Cc3c(C#CCCCCCC(=O)NC4(c5ccccn5)CN(C(=O)[C@@H]5CC[C@@H]6C[C@H]7C[C@H]7C[C@H](NC(=O)c7cc8cc(C(F)(F)P(=O)(O)O)ccc8s7)C(=O)N65)C4)cccc3C2=O)C(=O)N1 (stereo partly drawn) [Compound 1, ((2-(((3S,6S,7aS,8aR,9aR)-3-(3-(8-(2-(2,6-dioxopiperidin-3-yl)-1-oxoisoindolin-4-yl)oct-7-ynamido)-3-(pyridin-2-yl)azetidine-1-carbonyl)-5-oxodecahydro-1H-cyclopropa[d]pyrrolo[1,2-a]azocin-6-yl)carbamoyl)benzo[b]thiophen-5-yl)difluoromethyl)phosphonic acid] | < 0.1 µM | 3 to 30 µM | > 3 µM | 
5 | CCCC(=O)SCCOP(=O)(OCCSC(=O)CCC)C(F)(F)c1ccc2sc(C(=O)NC3CC4CC4CC4CCC(C(=O)N5CC(c6cnccc6N(C)CCOc6ccc(C7CCC(=O)NC7=O)cc6)C5)N4C3=O)cc2c1 [Compound 12, S,S′-(((((2-(((3S,6S,7aS,8aR,9aR)-3-(3-(4-((2-(4-(2,6-dioxopiperidin-3-yl)phenoxy)ethyl)(methyl)amino)pyridin-3-yl)azetidine-1-carbonyl)-5-oxodecahydro-1H-cyclopropa[d]pyrrolo[1,2-a]azocin-6-yl)carbamoyl)benzo[b]thiophen-5-yl)difluoromethyl)phosphoryl)bis(oxy))bis(ethane-2,1-diyl)) dibutanethioate] |  |  | < 0.1 µM | 
6 | CCCC(=O)SCCOP(=O)(OCCSC(=O)CCC)C(F)(F)c1ccc2sc(C(=O)NC3CC4CC4CC4CCC(C(=O)N5CC(NC(=O)CCCCCC#Cc6cccc7c6CN(C6CCC(=O)NC6=O)C7=O)(c6ccccn6)C5)N4C3=O)cc2c1 [Compound 2, S,S′-(((((2-(((3S,6S,7aS,8aR,9aR)-3-(3-(8-(2-(2,6-dioxopiperidin-3-yl)-1-oxoisoindolin-4-yl)oct-7-ynamido)-3-(pyridin-2-yl)azetidine-1-carbonyl)-5-oxodecahydro-1H-cyclopropa[d]pyrrolo[1,2-a]azocin-6-yl)carbamoyl)benzo[b]thiophen-5-yl)difluoromethyl)phosphoryl)bis(oxy))bis(ethane-2,1-diyl)) dibutanethioate] |  |  | < 0.1 µM | > 3 µM

Source: patent US20260308185A1, “STAT DEGRADERS AND USES THEREOF” (Recludix Pharma, Inc., priority 2023, published 2026)
